From patent US20230399312A1, “SUBSTITUTED PYRIMIDINES AND METHODS OF USE” (THERAVANCE BIOPHARMA R&D IP, LLC, priority 2020, published 2023)

What was measured:
[1] = target: T1, recombinant human ALK5 (TGF-βR1) protein (Homo sapiens, UniProt P36897); experiment: Biochemical ALK5 (TGF-βR1) assay to measure pKi (LANCE Ultra ULight kinase assay); details: apparent pKi, converted from pIC50 by Cheng-Prusoff
T1 construct: purchased Life Technologies PR9075A
T1 sequence (P36897 34-503): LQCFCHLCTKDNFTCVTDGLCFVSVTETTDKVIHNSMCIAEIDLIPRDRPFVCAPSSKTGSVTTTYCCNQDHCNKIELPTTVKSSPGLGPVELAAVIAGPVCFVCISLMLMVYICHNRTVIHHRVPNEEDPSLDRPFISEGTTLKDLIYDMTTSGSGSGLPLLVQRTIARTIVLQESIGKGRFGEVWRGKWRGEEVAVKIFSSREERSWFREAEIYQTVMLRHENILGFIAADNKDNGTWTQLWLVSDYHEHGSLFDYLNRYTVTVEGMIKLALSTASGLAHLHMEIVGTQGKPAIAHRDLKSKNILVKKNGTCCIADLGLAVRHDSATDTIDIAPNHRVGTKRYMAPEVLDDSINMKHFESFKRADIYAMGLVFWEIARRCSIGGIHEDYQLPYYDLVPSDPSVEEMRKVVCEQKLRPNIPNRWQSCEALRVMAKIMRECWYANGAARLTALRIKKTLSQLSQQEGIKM
Summary of the method: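 Read-out was LANCE Ultra TR-FRET with a europium anti-phospho-Topo IIα Thr1342 antibody after EDTA quench. Kinase reaction ran 60 min at 37 °C with ATP added from a 125 μM 5× stock, after 60 min compound–enzyme equilibration at room temperature. Values are pKi from Cheng-Prusoff conversion of fitted pIC50.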

[2] = test system: TGF-β-stimulated SMAD3 phosphorylation in BEAS-2B cells; experiment: Cellular ALK5 potency assay, inhibition of TGF-β stimulated pSMAD3 formation in BEAS-2B cells; assay type: cell-based; details: Homo sapiens, pSMAD3, TGF-β 10 ng/mL, read-out: BEAS2B pIC50 (converted)
Summary of the method: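 Cells were seeded overnight, rinsed into HEPES/BSA-supplemented HBSS, and dosed with serially diluted compound for 1 h at 37 °C, 5% CO2. TGF-β stimulation (10 ng/mL final) followed for 30 min, then lysis and AlphaLISA pSMAD3 measurement; potency reported as pIC50.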

SMILES	Ki [1] [nM]	IC50 [2] [nM]
Cc1cccc(-c2nccc(Nc3ccnc(Nc4ccc(CN5CCS(=O)(=O)CC5)cc4)n3)n2)n1 [Compound 417, N2-[4-[(1,1-dioxo-1,4-thiazinan-4-yl)methyl]phenyl]-N4-[2-(6-methyl-2-pyridyl)pyrimidin-4-yl]pyrimidine-2,4-diamine]	0.0398 to 0.316	25.1 to 158
Cc1cccc(-c2nccc(Nc3ccnc(Nc4ccc(N5CCNCC5)cc4)n3)n2)n1 [Compound 418, N4-(2-(6-methylpyridin-2-yl)pyrimidin-4-yl)-N2-(4-(piperazin-1-yl)phenyl)pyrimidine-2,4-diamine]	0.0398 to 0.316	25.1 to 158
Cc1cccc(-c2nccc(Nc3ccnc(Nc4cc(NC(=O)C5CCNCC5)c5c(c4)OCCO5)n3)n2)n1 [Compound 419, N-[7-[[4-[[2-(6-methyl-2-pyridyl)pyrimidin-4-yl]amino]pyrimidin-2-yl]amino]-2,3-dihydro-1,4-benzodioxin-5-yl]piperidine-4-carboxamide]	0.0398 to 0.316	25.1 to 158
Cc1cccc(-c2nccc(Nc3ccnc(Nc4cccc(S(=O)(=O)NCCN(C)C)c4)n3)n2)n1 [Compound 420, N-[2-(dimethylamino)ethyl]-3-[[4-[[2-(6-methyl-2-pyridyl)pyrimidin-4-yl]amino]pyrimidin-2-yl]amino]benzenesulfonamide]	0.0398 to 0.316	25.1 to 158
Cc1cccc(-c2nccc(Nc3ccnc(Nc4ccc(C)c(N)c4)n3)n2)n1 [Compound 421, N2-(3-amino-4-methyl-phenyl)-N4-[2-(6-methyl-2-pyridyl)pyrimidin-4-yl]pyrimidine-2,4-diamine]	0.0398 to 0.316	≤ 20
Cc1cccc(-c2nccc(Nc3ccnc(Nc4ccc(N5CCN[C@@H](C(=O)O)C5)cc4)n3)n2)n1 [Compound 422, (2R)-4-[4-[[4-[[2-(6-methyl-2-pyridyl)pyrimidin-4-yl]amino]pyrimidin-2-yl]amino]phenyl]piperazine-2-carboxylic acid]	0.0398 to 0.316	200 to 1260
Cc1cccc(-c2nccc(Nc3ccnc(Nc4cccc(C(=O)O)c4)n3)n2)n1 [Compound 423, 3-[[4-[[2-(6-methyl-2-pyridyl)pyrimidin-4-yl]amino]pyrimidin-2-yl]amino]benzoic acid]	0.398 to 3.16	1580 to 10000
Cc1cccc(-c2nccc(Nc3ccnc(Nc4cccc(CN5C6CCC5CNC6)c4)n3)n2)n1 [Compound 424, N2-[3-(3,8-diazabicyclo[3.2.1]octan-8-ylmethyl)phenyl]-N4-[2-(6-methyl-2-pyridyl)pyrimidin-4-yl]pyrimidine-2,4-diamine]	0.0398 to 0.316	25.1 to 158
Cc1cccc(-c2nccc(Nc3ccnc(Nc4ccc(-c5cnn(C(C)C)c5)cc4)n3)n2)n1 [Compound 425, N2-[4-(1-isopropylpyrazol-4-yl)phenyl]-N4-[2-(6-methyl-2-pyridyl)pyrimidin-4-yl]pyrimidine-2,4-diamine]	0.398 to 3.16	25.1 to 158
Fc1ccc(-c2nccc(Nc3ccnc(Nc4ccc(N5CCOCC5)cc4)n3)n2)nc1C(F)F [Compound 426, N4-(2-(6-(difluoromethyl)-5-fluoropyridin-2-yl)pyrimidin-4-yl)-N2-(4-morpholinophenyl)pyrimidine-2,4-diamine]	3.98 to 31.6	25.1 to 158
CNCCNS(=O)(=O)c1ccc(Nc2nccc(Nc3ccnc(-c4cccc(C)n4)n3)n2)cc1 [Compound 427, N-[2-(methylamino)ethyl]-4-[[4-[[2-(6-methyl-2-pyridyl)pyrimidin-4-yl]amino]pyrimidin-2-yl]amino]benzenesulfonamide]	0.0398 to 0.316	25.1 to 158
Cc1cccc(-c2nccc(Nc3ccnc(Nc4ccc(CN5CCC[C@@H](C(=O)O)C5)cc4)n3)n2)n1 [Compound 428, (3R)-1-[[4-[[4-[[2-(6-methyl-2-pyridyl)pyrimidin-4-yl]amino]pyrimidin-2-yl]amino]phenyl]methyl] piperidine-3-carboxylic acid]	0.0398 to 0.316	200 to 1260
